# Measured values: patent publication US20210236523A1, “P[…] FOR HEADACHE DISORDERS” (priority 2020, published 2021)
# How the values were obtained:
# [1] = system: patients with cluster headache; assay: Cluster headache study: tolerability and adverse events; type: in vivo, human
# Description: Sessions were conducted in the Neurobiological Studies Unit (NSU) at VACHS. Subjects reported to the NSU at 08:00; urine drug, urine pregnancy (when applicable), and alcohol breathalyzer tests were required to be negative in order to proceed. After a standard light breakfast, an intravenous line was placed and baseline measures were collected. Subjects typically received the drug capsule between 08:30 and 09:30. Blood pressure, heart rate, and peripheral oxygenation were measured at baseline and throughout experimental sessions. Drug effects (overall, anxiety/fear, sleepiness/sedation, nausea, joy/intense happiness, peace/harmony) were self-reported on a 0-3 scale (0=none, 1=minimal, 2=moderate, 3=definite) at baseline and throughout experimental sessions. Psychedelic effects were self-reported at the end of experimental sessions using the validated 5-Dimensional Altered States of Consciousness (5D-ASC) scale. Subjects were discharged from the NSU at 6 hours after capsule ingestion or once physiological and psychological drug effects had resolved. Subjects were not allowed to drive themselves after experimental sessions. Emergency contacts, including 24-hour/7-day psychiatry services, were provided to all subjects.
# Telephone follow-up was performed the day after each experimental session and weekly for two weeks and at 2, 3, and 6 months after the last experimental session.
# [2] = system: patients with cluster headache; assay: Randomized placebo-controlled study of a 3-dose psilocybin pulse regimen in cluster headache: headache diary; type: in vivo, human; conditions: for effect size for change in weekly cluster attacks: psilocybin vs placebo; for change in the number of weekly cluster attacks / number of weekly cluster attacks: 3-dose pulse 0.143 mg/kg
# Description: In this exploratory study, a patient-informed regimen (a low dose of psilocybin (between 1-2 grams dried P. cubensis taken three times, approximately 5 days apart each)) was studied in patients with cluster headache in a controlled, laboratory setting. The information gained from this study serves to (1) verify longstanding anecdotal reports and (2) design larger, more definitive studies examining the safety and efficacy of psilocybin in cluster headache.
# This study was registered on clinicaltrials.gov (NCT02981173) with approvals from the Human Studies Subcommittee of Veterans Affairs Connecticut Healthcare System (VACHS) and the Human Investigations Committee of Yale University School of Medicine. The study was conducted under an approved Investigational New Drug application (#124,874) with the US Food & Drug Administration, under a Schedule 1 license (author DCD). Psilocybin was provided by author NC from the University of Wisconsin. Weight-based capsules of psilocybin 0.143 mg/kg and matching placebo (microcrystalline cellulose; obtained from Fagron (St. Paul, Minn.)) were compounded into identical blue gel capsules by the VACHS Investigational Research Pharmacy for each subject.
# Adults (age 21 to 65 years, inclusive) with cluster headache as defined by the International Classification of Headache Disorders III-beta 8 were eligible to participate in this study. Both chronic and episodic cluster headache subtypes were eligible, however certain conditions were required to ensure proper interpretation of the study intervention. For both chronic and episodic subjects, an attack frequency of approximately 1 attack per day or more was required. For episodic subjects, the typical cluster period was required to last approximately 2 months or more and study participation could only take place when at least 6 weeks of the period was anticipated to remain. Excluded medical conditions included, but were not limited to, uncontrolled hypertension, coronary artery disease, cardiac arrhythmia, cerebrovascular disease, and serious central or peripheral nervous system or spinal disease. Excluded psychiatric conditions included, but were not limited to, psychotic or manic disorders in the subject or a first degree relative and substance abuse within the past 3 months. Any prior serious adverse event with psilocybin, LSD, or related compounds (i.e., mescaline) was also exclusionary. Prior exposure to psilocybin or related compounds through recreational or medicinal use or through participation in other research studies was not excluded, although any use in the past 3 months was prohibited. Alcohol use within one week of the first experimental test day was prohibited. Caffeine and nicotine were not restricted. Subjects were required to be off serotonergic antidepressants (selective serotonin reuptake inhibitors, serotonin and norepinephrine reuptake inhibitors, monoamine oxidase inhibitors, tricyclics) for at least 6 weeks and serotonergic antiemetics (i.e., ondansetron) for at least 2 weeks from the first test day. Vasoconstrictive medications (i.e., sumatriptan, pseudoephedrine) could be used during the study period, but not within 5 half-lives of said medication and not within 5 half-lives of psilocybin (15 hours) after each test day. Triptans were also not allowed more than twice weekly.
# Subjects were instructed to maintain a headache diary starting 2 weeks before until 8 weeks after the first experimental session. Subjects documented every cluster attack, including date, onset, offset, pain intensity (0-10 visual analog scale (VAS): 0=none, 1=minimal, 5=moderate, 9=severe, 10=worst imaginable). The abortive treatments taken and their effects were also recorded in the diary. Only the 14 days prior to the first experimental session (baseline) and the 56 days after the first experimental session (inclusive) were counted in the final analysis. […]
smiles,measurement,setting,value
"CN(C)CCc1c[nH]c2cccc(OP(=O)(O)O)c12 [psilocybin, 3-(2-dimethylaminoethyl)-1H-indol-4-yl] dihydrogen phosphate]",serious or unexpected adverse events,"[1]; cluster headache study, 3-dose pulse 0.143 mg/kg",no serious or unexpected adverse events
same,lasting physical or psychological changes,[1]; follow-up in the 6 months after study participation,no lasting physical or psychological changes
same,most commonly reported adverse events during acute exposure,[1]; self-limiting,nausea and anxiety
same,effect size for change in weekly cluster attacks,"[2]; chronic cluster headache subjects, 8 weeks",−1.20
same,change in the number of weekly cluster attacks,"[2]; chronic cluster headache subjects, across 8 weeks, P=0.080 vs placebo",−6.08 (2.29)
same,number of weekly cluster attacks,"[2]; chronic cluster headache subjects, across 8 weeks, group baseline 8.67 (2.42)",4.58 (0.77)
same,change in the number of weekly cluster attacks,"[2]; over the first 3 weeks, episodic and chronic combined, P=0.017 vs placebo",−6.03 (2.23)
same,number of weekly cluster attacks,"[2]; over the first 3 weeks, episodic and chronic patients combined, group baseline 9.30 (1.49)",3.50 (1.12)
same,effect size for change in weekly cluster attacks,[2]; three weeks,−1.89
